Consider two molecules from patent publication US9840508B2, “N-acyl-(3-substituted)-(8-methyl)-5,6-dihydro-[1,2,4]triazolo[4,3-a] pyrazines as selective NK-3 receptor antagonists, pharmaceutical composition, methods for use in NK-3 receptor-mediated disorders” (EUROSCREEN SA, priority 2013, dated 2017).

For data set [1], the target named is T1, human NK-3 receptor (Homo sapiens (Human), UniProt P29371). Briefly: Aequorin functional assay with human NK-3 receptor (antagonist testing). Type of data set: cell-based. Particulars: CHO cells expressing human NK-3 receptor; agonist NKA at EC80 (3 nM); read-out: Functional assay: Aequorin assay with human NK-3 receptor hNK-3 - AEQ (antagonist IC50). The procedure:
Aequorin Assay with Human NK-3 Receptor
Changes in intracellular calcium levels are a recognized indicator of G protein-coupled receptor activity. The efficacy of compounds of the invention to inhibit NKA-mediated NK-3 receptor activation was assessed by an in vitro Aequorin functional assay. Chinese Hamster Ovary recombinant cells expressing the human NK-3 receptor and a construct that encodes the photoproteinapoaequorin were used for this assay. In the presence of the cofactor coelenterazine, apoaequorin emits a measurable luminescence that is proportional to the amount of intracellular (cytoplasmic) free calcium.
The antagonist activity of compounds of the invention is measured following pre-incubation (3 minutes) of the compound (at various concentrations) with the cells, followed by addition of the reference agonist (NKA) at a final concentration equivalent to the EC80 (3 nM) and recording of emitted light (FDSS 6000 Hamamatsu) over the subsequent 90-second period. The intensity of the emitted light is integrated using the reader software. Compound antagonist activity is measured based on the concentration-dependent inhibition of the luminescence response to the addition of Neurokinin A.
The IC50 values shown in Table 2 indicate that compounds of the invention are potent NK-3 antagonist compounds.

For another data set, the target named is human NK-1 receptor (Homo sapiens (Human), UniProt P25103). Briefly: Selectivity binding assay, human NK-1 ([3H] substance P). Particulars: CHO cell membranes; 2 nM [3H] substance P; read-out: hNK-1 (Ki). The protocol: Selectivity of the compounds of the invention was determined over the other human NK receptors, namely NK-1 and NK-2 receptors.
The affinity of compounds of the invention for the NK-1 receptor was evaluated in CHO recombinant cells which express the human NK-1 receptor. Membrane suspensions were prepared from these cells. The following radioligand: [^3H] substance P (PerkinElmer Cat#NET111520) was used in this assay. Binding assays were performed in a 50 mM Tris/5 mM MnCl2/150 mM NaCl/0.1% BSA at pH 7.4. Binding assays consisted of 25 μl of membrane suspension (approximately 5 μg of protein/well in a 96 well plate), 50 μl of compound or reference ligand (Substance P) at increasing concentrations (diluted in assay buffer) and 2 nM [^3H] substance P. The plate was incubated 60 min at 25° C. in a water bath and then filtered over GF/C filters (Perkin Elmer, 6005174, presoaked in 0.5% PEI for 2 h at room temperature) with a Filtration unit (Perkin Elmer). The radioactivity retained on the filters was measured by using the TopCount-NXT reader (Packard). Competition curves were obtained for compounds of the invention and the concentrations of compounds which displaced 50% of bound radioligand (IC50) were determined and then apparent inhibition constant Ki values were calculated by the following equation: Ki=IC50/(1+[L]/KD) where [L] is the concentration of free radioligand and KD is its dissociation constant at the receptor, derived from saturation binding experiments (Cheng and Prusoff, 1973).

Data set [2] addresses T1, human NK-3 receptor. Briefly: 3H-SB222200 binding competition assay with human NK-3 receptor. The protocol: The affinity of compounds of the invention for the human NK-3 receptor was determined by measuring the ability of compounds of the invention to competitively and reversibly displace a well-characterized NK-3 radioligand in a concentration-dependent manner.
^3H-SB222200 Binding Competition Assay with Human NK-3 Receptor
The ability of compounds of the invention to inhibit the binding of the NK-3 receptor selective antagonist ^3H-SB222200 was assessed by an in vitro radioligand binding assay. Membranes were prepared from Chinese hamster ovary recombinant cells stably expressing the human NK-3 receptor. The membranes were incubated with 5 nM ^3H-SB222200 (ARC) in a HEPES 25 mM/NaCl 0.1M/CaCl2 1 mM/MgCl2 5 mM/BSA 0.5%/Saponin 10 μg/ml buffer at pH 7.4 and various concentrations of compounds of the invention. The amount of ^3H-SB222200 bound to the receptor was determined after filtration by the quantification of membrane associated radioactivity using the TopCount-NXT reader (Packard).

The test system of a further data set is plasma protein. In words: Determination of plasma protein binding (rapid equilibrium dialysis). The class given is in vitro ADME. Particulars: 4 hours at 37° C. An excerpt:
Determination of Plasma Protein Binding
The pharmacokinetic and pharmacodynamic properties of chemicals/drugs are largely a function of the reversible binding of chemicals to plasma or serum proteins. Generally, only the unbound or “free fraction” of a drug is available for diffusion or transport across cell membranes, and for interaction with a pharmacological/toxicological target. Consequently, the extent of the plasma protein binding (PPB) of a compound influences its action as well as its distribution and elimination.
The determination of plasma protein binding (PPB) of a compound is enabled by equilibrium dialysis, an accepted and standard method for reliable estimation of the non-bound drug fraction in plasma. RED (Rapid Equilibrium Dialysis) device insert is made of two side-by-side chambers separated by an O-ring-sealed vertical cylinder of dialysis membrane (MWCO˜8,000). Plasma containing drug (at 5 μM or blood concentrations otherwise corresponding to efficacious doses, if known) is added to one chamber while buffer is added to the second. After 4 hours incubation at 37° C. under shaking, an aliquot is removed from each chamber and analyzed by a LC-MS/MS procedure enables the determination of both free and bound drug.
The percentages provided in Table 4 represent for the compounds of the invention the bound drug fraction to the plasma protein. The “free fraction” may be calculated as 100%−% rPPB (i.e. the complementary percentage of that disclosed in Table 4, corresponding to the drug concentration that is unbound and therefore available to engage biological target and elicit pharmacological activity).
(In general: In equilibrium dialysis free small molecules cross a membrane that holds back macromolecules.)

Setting [3] is: CHO cell membranes, 5 nM 3H-SB222200, Table 2, read-out: Competitive binding assay with human NK-3 receptor hNK-3 (Ki).
The mark [4] stands for this setting: Table 3 (selectivity table), read-out: hNK-3 (Ki).

Read-outs that look alike come from different tables or passages of the source. A value given as a limit tells only on which side of the number the result lay.

T1 sequence (P29371 whole entry): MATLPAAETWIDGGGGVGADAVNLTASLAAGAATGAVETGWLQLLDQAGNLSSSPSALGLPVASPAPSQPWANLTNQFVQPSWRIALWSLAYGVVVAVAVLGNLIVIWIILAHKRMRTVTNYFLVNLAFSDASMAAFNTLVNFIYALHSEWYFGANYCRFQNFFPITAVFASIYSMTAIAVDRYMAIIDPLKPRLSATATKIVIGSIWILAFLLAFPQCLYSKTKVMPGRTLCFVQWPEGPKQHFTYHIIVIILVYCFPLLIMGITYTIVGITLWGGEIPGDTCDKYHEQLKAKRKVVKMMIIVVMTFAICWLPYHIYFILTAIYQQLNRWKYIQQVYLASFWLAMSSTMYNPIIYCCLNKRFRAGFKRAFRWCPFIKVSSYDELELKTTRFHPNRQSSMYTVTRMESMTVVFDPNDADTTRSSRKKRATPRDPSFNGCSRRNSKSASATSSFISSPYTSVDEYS
Sequence of human NK-1 receptor (P25103 whole entry): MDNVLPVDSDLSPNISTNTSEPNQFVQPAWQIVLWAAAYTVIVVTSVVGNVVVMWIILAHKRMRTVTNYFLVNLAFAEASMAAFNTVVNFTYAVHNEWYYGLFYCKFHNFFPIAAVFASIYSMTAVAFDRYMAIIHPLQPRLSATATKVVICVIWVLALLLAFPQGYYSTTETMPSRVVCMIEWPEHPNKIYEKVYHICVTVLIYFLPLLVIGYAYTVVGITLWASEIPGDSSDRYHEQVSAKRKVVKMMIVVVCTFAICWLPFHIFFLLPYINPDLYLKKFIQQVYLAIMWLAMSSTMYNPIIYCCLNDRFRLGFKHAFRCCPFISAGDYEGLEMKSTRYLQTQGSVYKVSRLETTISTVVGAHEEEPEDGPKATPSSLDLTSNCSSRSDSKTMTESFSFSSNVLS

The term IC50 denotes the point on the concentration scale where inhibition reaches its midpoint. One may read the Ki as a measure of affinity in units of concentration, obtained from inhibition or displacement. Regarding `Cc1ccc(-c2nnc3n2CCN(C(=O)c2ccc(F)cc2)[C@@H]3C)o1` [Compound 1, (R)-(4-fluorophenyl)(8-methyl-3-(5-methylfuran-2-yl)-5,6-dihydro-[1,2,4]triazolo[4,3-a]pyrazin-7(8H)-yl)methanone], on human NK-3 receptor [1], the IC50 is 60 nM. For the same molecule, the values for the Ki at human NK-1 receptor, at human NK-3 receptor [2] (setting [3]) and at human NK-3 receptor [2] (setting [4]) were above 30000 nM, 48 nM and 48 nM, respectively. In addition, the “Exposure (% rPPB), bound drug fraction to the plasma protein” value in the data set with plasma protein came to 28%.
Regarding `C[C@@H]1c2nnc(-c3csc(C(F)(F)F)n3)n2CCN1C(=O)c1ccc(F)cc1` [Compound 3, (R)-(4-fluorophenyl)(8-methyl-3-(2-(trifluoromethyl)thiazol-4-yl)-5,6-dihydro-[1,2,4]triazolo[4,3-a]pyrazin-7(8H)-yl)methanone], the 50% inhibitory concentration (IC50) on human NK-3 receptor [1] was 20 nM. For the same molecule, the values for the Ki on human NK-1 receptor, at human NK-3 receptor [2] (setting [3]) and on human NK-3 receptor [2] (setting [4]) were above 30000 nM, 22 nM and 22 nM, respectively. In addition, the “Exposure (% rPPB), bound drug fraction to the plasma protein” value with plasma protein is reported as 50%.
